Experimental data: patent US20110280827A1, “METHODS AND COMPOSITIONS FOR TREATING HEMATOLOGICAL MALIGNANCIES” (priority 2009, published 2011)

Experiments:
[1] = system: pre-B-ALL cells; conditions: in vitro; cited from earlier work
[2] = system: AML; conditions: in combination with chemotherapy, compared to chemotherapy alone; cited from earlier work
[3] = in vivo; cited from earlier work
[4] = system: Raji B-cell lymphoma cells; assay: Disseminated Raji lymphoma model in SCID mice (survival, Kaplan-Meier); assay type: in vivo
Experimental: Four groups of 4- to 6-week-old SCID mice (8 animals each) were injected intravenously with 2×10^6 Raji B-cell lymphoma cells. The Raji cell line is a well-characterized human B-cell lymphoblastic line (CXCR4^+, CD19^+, CD20^+, CD22^+, CD52^+) derived from a patient with Burkitt's lymphoma (available from the American Tissue and Cell Collection, Manassas, Va.). Starting on day 7 after the injection, three of the four groups were administered subcutaneous AMD3465 daily (Monday-Friday regimen) at 0.1 mg/kg, 0.5 mg/kg or 1.0 mg/kg body weight.

[5] = system: stroma-cocultured Jurkat cells, primary CLL cells, subset of AML cells harboring Flt3 mutation; conditions: in vitro, stroma coculture; cited from earlier work
[6] = system: B104 B-cell lymphoma cells; assay: Disseminated B104 lymphoma model in SCID mice (survival, Kaplan-Meier); assay type: in vivo
Experimental: Five groups of 4- to 6-week-old SCID mice (8 animals each) were injected intravenously with 1×10^6 B104 B-cell lymphoma cells. […] Starting on day 7 after the injection, one group was administered CAMPATH® (alemtuzumab) weekly at 10 mg/kg; a second group was administered AMD3465 three times a week (Monday, Wednesday, Friday regimen) at 5.0 mg/kg; a third group was administered CAMPATH® (alemtuzumab) weekly at 10 mg/kg and AMD3465 three times a week (Monday, Wednesday, Friday regimen) at 1.0 mg/kg; and a fourth group was administered CAMPATH® (alemtuzumab) weekly at 10 mg/kg and AMD3465 three times a week (Monday, Wednesday, Friday regimen) at 5.0 mg/kg. […] The treatment was terminated on day 42.
Four groups of 4- to 6-week-old SCID mice (8 animals each) were injected intravenously with 1×10^6 B104 B-cell lymphoma cells. Starting on day 10 after the injection, one group was administered CAMPATH® (alemtuzumab) weekly at 10 mg/kg; a second group was administered AMD3465 daily (Monday-Friday regimen) at 5.0 mg/kg; and a third group was administered CAMPATH® (alemtuzumab) weekly at 10 mg/kg and AMD3465 daily (Monday-Friday regimen) at 5.0 mg/kg body weight.

Structure (SMILES) | SDF-1/CXCL12 induced chemotaxis of pre-B-ALL cells into bone marrow stroma layers [1] | cytotoxic and antiproliferative effects of vincristine and dexamethasone [1] | overall survival [2] | tumor burden [2] | white blood cell count [3] | mean survival ([4]; 5.0 mg/kg AMD3465 alone daily (M-F) from day 7) | dose dependence of the survival effect ([4]; AMD3465 alone 0.1, 0.5, 1.0 mg/kg, reverse dose-response) | mean survival ([4]; AMD3465 alone s.c. daily (M-F) at 0.1, 0.5 or 1.0 mg/kg from day 7, each concentration tested, vs control) | chemotherapy-induced apoptosis [5] | mean survival ([6]; 5.0 mg/kg AMD3465 alone daily (M-F) from day 10) | mean survival ([6]; 5.0 mg/kg AMD3465 alone three times a week (M, W, F) from day 7)
c1cc(CN2CCCNCCNCCCNCC2)ccc1CN1CCCNCCNCCCNCC1 [AMD3100] | blocked | enhanced | improved overall survival | decreased tumor burden | increasing the white blood cell count |  |  |  |  |  | 
c1ccc(CNCc2ccc(CN3CCCNCCNCCCNCC3)cc2)nc1 [AMD3465] |  |  | improved overall survival | decreased tumor burden |  | did not have a significant effect | stronger effect observed at the lower concentrations | significantly increased | significantly enhanced | did not have a significant effect | did not have a significant effect
